Here are results for 19 compounds from PubChem BioAssay AID256 (DTP/NCI, 2004).

Several values for one entry are separate records, joined by “and”; a condition that tells them apart may be missing. Equal values may be shown once. Toxic doses and inconclusive results are not listed.

This assay deals with CD2F1 mice, L1210 leukemia ip, survival T/C. Briefly: NCI In Vivo Anticancer Drug Screen. Data for tumor model L1210 Leukemia (intraperitoneal) in CD2F1 (CDF1) mice. Conditions: higher = longer survival. In outline:
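Vehicle-treated tumor-bearing mice served as controls (C) for compound-treated mice (T). Reported figure is T divided by C.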

The mark [1] stands for this setting: endpoint: mean survival time, dose: 50.0 mg/kg/injection, schedule: Q01DX009 (ip), vehicle: saline with Tween-80.
Setting [2] is: endpoint: mean survival time, dose: 100.0 mg/kg/injection, schedule: Q01DX009 (ip), vehicle: saline with Tween-80.
[3] abbreviates: endpoint: mean survival time, dose: 200.0 mg/kg/injection, schedule: Q01DX009 (ip), vehicle: saline with Tween-80.
Setting [4] is: endpoint: median survival time, dose: 50.0 mg/kg/injection, schedule: Q01DX009 (ip), vehicle: Klucel (hydroxypropylcellulose) (HPC).
The mark [5] stands for this setting: endpoint: median survival time, dose: 100.0 mg/kg/injection, schedule: Q01DX009 (ip), vehicle: Klucel (hydroxypropylcellulose) (HPC).
Setting [6] is: endpoint: median survival time, dose: 200.0 mg/kg/injection, schedule: Q01DX009 (ip), vehicle: Klucel (hydroxypropylcellulose) (HPC).
Setting [7] is: endpoint: mean survival time, dose: 100.0 mg/kg/injection, schedule: Q04DX003 (ip), vehicle: saline with Tween-80.
Setting [8] is: endpoint: mean survival time, dose: 200.0 mg/kg/injection, schedule: Q04DX003 (ip), vehicle: saline with Tween-80.
Setting [9] is: endpoint: mean survival time, dose: 400.0 mg/kg/injection, schedule: Q04DX003 (ip), vehicle: saline with Tween-80.
The mark [10] stands for this setting: endpoint: mean survival time, dose: 12.5 mg/kg/injection, schedule: Q01DX009 (ip), vehicle: Klucel (hydroxypropylcellulose) (HPC).
The mark [11] stands for this setting: endpoint: mean survival time, dose: 400.0 mg/kg/injection, schedule: Q01DX009 (ip), vehicle: saline with Tween-80.
Where [12] appears, read: endpoint: mean survival time, dose: 100.0 mg/kg/injection, schedule: Q01DX009 (ip), vehicle: saline.
Where [13] appears, read: endpoint: mean survival time, dose: 200.0 mg/kg/injection, schedule: Q01DX009 (ip), vehicle: saline.
Setting [14] is: endpoint: mean survival time, dose: 400.0 mg/kg/injection, schedule: Q01DX009 (ip), vehicle: saline.

In the case of `Cc1ccc(S(=O)(=O)OC2C(O)C(CO)OC2n2c(Br)c(C#N)c3c(N)ncnc32)cc1` (stereo not given), the T/C is, setting by setting: (endpoint: mean survival time, dose: 25.0 mg/kg/injection, schedule: Q01DX005 (ip), vehicle: saline with Tween-80) 93 % of control; (endpoint: mean survival time, dose: 50.0 mg/kg/injection, schedule: Q01DX005 (ip), vehicle: saline with Tween-80) 102 % of control; (endpoint: mean survival time, dose: 100.0 mg/kg/injection, schedule: Q01DX005 (ip), vehicle: saline with Tween-80) 100 % of control; (endpoint: mean survival time, dose: 200.0 mg/kg/injection, schedule: Q01DX005 (ip), vehicle: saline with Tween-80) 96 % of control.
In the case of `COc1ccccc1NC(=S)N(C)C`, the T/C runs as follows: under setting [1], 98 % of control; under setting [2], 101 % of control; under setting [3], 98 % of control.
Consider `CN(C)c1ccc2c(Nc3ccc(NS(C)(=O)=O)cc3)c3ccc(N(C)C)cc3nc2c1`, for which the T/C under setting [4] is 170 % of control; the T/C under setting [5] is 151 % of control and 193 % of control; the T/C under setting [6] was 164 % of control and 174 % of control.
For the compound `CCC(C)(O)c1ccccc1` (stereo not given), the T/C runs as follows: under setting [1], 103 % of control; under setting [2], 100 % of control; under setting [3], 95 % of control.
In the case of `CCOC(=O)C(C)C1(O)CCCCC1` (stereo not given), the T/C by setting is: under setting [7], 101 % of control; under setting [8], 101 % of control; under setting [9], 92 % of control.
Turning to `O=C(COc1ccc(S[N+](=O)[O-])cc1)c1ccccc1`, the T/C reads like this: (endpoint: mean survival time, dose: 100.0 mg/kg/injection, schedule: Q01DX001 (ip), vehicle: saline) 105 % of control; (endpoint: mean survival time, dose: 200.0 mg/kg/injection, schedule: Q01DX001 (ip), vehicle: saline) 103 % of control; (endpoint: mean survival time, dose: 400.0 mg/kg/injection, schedule: Q01DX001 (ip), vehicle: saline) 94 % of control.
For `O=[N+]([O-])c1ccc(S(=O)(=O)c2ccc([N+](=O)[O-])cc2)cc1`, the T/C by setting is: under setting [1], 93 % of control; under setting [2], 93 % of control; under setting [3], 93 % of control.
Regarding `C#CCN(C)/N=N/c1nc[nH]c1C(N)=O`, the T/C by setting is: under setting [10], 123 % of control; (endpoint: mean survival time, dose: 200.0 mg/kg/injection, schedule: Q01DX009 (ip), vehicle: Klucel (hydroxypropylcellulose) (HPC)) 98 % of control.
In the case of `COc1ccc(C(=O)c2no[n+]([O-])c2C(=O)c2ccc(OC)cc2)cc1`, the T/C is, setting by setting: (endpoint: mean survival time, dose: 12.5 mg/kg/injection, schedule: Q01DX009 (ip), vehicle: saline with Tween-80) 100 % of control; (endpoint: mean survival time, dose: 25.0 mg/kg/injection, schedule: Q01DX009 (ip), vehicle: saline with Tween-80) 97 % of control; under setting [1], 101 % of control; under setting [2], 97 % of control and 98 % of control; under setting [3], 98 % of control and 102 % of control; under setting [11], 97 % of control and 110 % of control.
As to `O=C(O)c1ccc([As](=O)(O)O)cc1`, the T/C was 102 % of control (endpoint: mean survival time, dose: 6.25 mg/kg/injection, schedule: Q01DX009 (ip), vehicle: Klucel (hydroxypropylcellulose) (HPC)); 98 % of control under setting [10]; 87 % of control and 92 % of control (endpoint: mean survival time, dose: 25.0 mg/kg/injection, schedule: Q01DX009 (ip), vehicle: Klucel (hydroxypropylcellulose) (HPC)).
Turning to `CC1CCC(n2cnc3c(Cl)ncnc32)O1` (stereo not given), the T/C was 97 % of control and 101 % of control (endpoint: median survival time, dose: 12.5 mg/kg/injection, schedule: Q01DX009 (ip), vehicle: Klucel (hydroxypropylcellulose) (HPC)); 95 % of control and 100 % of control and 105 % of control (endpoint: median survival time, dose: 25.0 mg/kg/injection, schedule: Q01DX009 (ip), vehicle: Klucel (hydroxypropylcellulose) (HPC)); 113 % of control and 93 % of control and 108 % of control under setting [4]; 102 % of control and 108 % of control and 111 % of control under setting [5]; 113 % of control (2×) and 114 % of control under setting [6].
In the case of `NC(N)=NC(N)=Nc1ccc(C(=O)O)c(O)c1`, the T/C was 106 % of control under setting [12], 95 % of control under setting [13] and 95 % of control under setting [14].
As to `CCCCCCCCCCCCCCCCCc1nnc(-c2ccccc2O)o1`, the T/C was 100 % of control (endpoint: mean survival time, dose: 25.0 mg/kg/injection, schedule: Q04DX002 (ip), vehicle: saline with Tween-80); 103 % of control (endpoint: mean survival time, dose: 50.0 mg/kg/injection, schedule: Q04DX002 (ip), vehicle: saline with Tween-80); 108 % of control (endpoint: mean survival time, dose: 100.0 mg/kg/injection, schedule: Q04DX002 (ip), vehicle: saline with Tween-80); 112 % of control (endpoint: mean survival time, dose: 200.0 mg/kg/injection, schedule: Q04DX002 (ip), vehicle: saline with Tween-80).
With `O=C(O)CCn1ccccc1=O`, the T/C is, setting by setting: under setting [2], 94 % of control; under setting [7], 95 % of control; under setting [3], 93 % of control; under setting [8], 96 % of control; under setting [11], 94 % of control; under setting [9], 95 % of control.
Turning to `O/N=C\c1cc[n+](CC[n+]2ccc(/C=N/O)cc2)cc1`, the T/C was 97 % of control (endpoint: mean survival time, dose: 25.0 mg/kg/injection, schedule: Q04DX002 (ip), vehicle: other); 94 % of control (endpoint: mean survival time, dose: 50.0 mg/kg/injection, schedule: Q04DX002 (ip), vehicle: other); 108 % of control (endpoint: mean survival time, dose: 100.0 mg/kg/injection, schedule: Q04DX002 (ip), vehicle: other).
Regarding `CCOC(=O)CNC(=O)NC`, the T/C is 100 % of control under setting [12], 98 % of control under setting [13] and 100 % of control under setting [14].
Consider `CCCCCCCCCC1=NC(C)(C)CN1c1ccccc1`, for which the T/C runs as follows: (endpoint: mean survival time, dose: 5.0 mg/kg/injection, schedule: Q01DX009 (ip), vehicle: saline with Tween-80) 98 % of control; (endpoint: mean survival time, dose: 10.0 mg/kg/injection, schedule: Q01DX009 (ip), vehicle: saline with Tween-80) 102 % of control; (endpoint: mean survival time, dose: 20.0 mg/kg/injection, schedule: Q01DX009 (ip), vehicle: saline with Tween-80) 106 % of control.
Regarding `Clc1nc(Cl)nc(-c2cccn2-c2ccccc2)n1`, the T/C was 93 % of control under setting [2], 102 % of control under setting [7], 108 % of control under setting [8] and 115 % of control under setting [9].
On to `FC(F)(F)COP1(OCC(F)(F)F)=NP(OCC(F)(F)F)(OCC(F)(F)F)=NP(OCC(F)(F)F)(OCC(F)(F)F)=NP(OCC(F)(F)F)(OCC(F)(F)F)=N1`, for which the T/C (endpoint: mean survival time, dose: 50.0 mg/kg/injection, schedule: Q01DX009 (ip), vehicle: saline) was 100 % of control; the T/C under setting [12] is 100 % of control; the T/C (endpoint: mean survival time, dose: 100.0 mg/kg/injection, schedule: Q04DX003 (ip), vehicle: saline) was 97 % of control; the T/C under setting [13] is 97 % of control; the T/C (endpoint: mean survival time, dose: 200.0 mg/kg/injection, schedule: Q04DX003 (ip), vehicle: saline) is 97 % of control; the T/C (endpoint: mean survival time, dose: 400.0 mg/kg/injection, schedule: Q04DX003 (ip), vehicle: saline) is 105 % of control.
